Where two headings read alike, the source gives them in different places.
Columns and labels:
serum MIC-1 = assay: Phase Ib/II study with pembrolizumab: pharmacodynamics; type: in vivo, human; details: after APG-115 treatment, preliminary
Description: In the dose escalation study, APG-115 is combined with pembrolizumab of for the treatment of patients with metastatic solid tumor. Four dose levels of APG-115 are tested: 50, 100, 150, and 200 mg. APG-115 is administrated orally every other day (QOD) for consecutive 2 weeks of a 21-day-cycle. Pembrolizumab is administrated at 200 mg IV on day 1 of a 21-day-cycle. The primary objectives of the dose escalation study is to determine safety, tolerability, and determination of MTD and RP2D; other anti-tumor assessments (assessed per RECIST v1.1 every 6 weeks) are the secondary objectives.

[1] = Pharmacokinetic (PK) analysis in MH-22A tumor-bearing mice (LC/MS/MS); type: in vivo, mouse; details: for concentration at 4 h: oral
Description: The quantitative LC/MS/MS analysis was conducted using an Exion HPLC system (AB Sciex, Ontario, Canada) coupled to an API 5500 mass spectrometer (AB Sciex, Ontario, Canada) equipped with an API electrospray ionization (ESI) source. The Phenomenex Titank phenyl-Hexyl column (50 mm×2.1 mm, 5 μm particle size) was used to achieved HPLC separation. The injection volume was 2 μl and the flow rate was kept constantly at 0.5 ml/min. Chromatography was performed with mobile phase A, acetonitrile:water:formic (5:95:0.1, by volume) and B, acetonitrile:water:formic (95:5:0.1, by volume). The mass spectrometer was operated at ESI positive ion mode for APG-115 while ESI negative mode for epacadostat. The detection of the ions was performed in the multiple reaction monitoring (MRM) mode, monitoring the transition of m/z 642.0→246.1 and 271.1→172.0 for APG-115 and IS (tolbutamide) in positive mode, 435.9→338.8 and 269.2→169.2 for epacadostat and IS (tolbutamide) in negative mode, respectively. Compounds parameters, declustering potential (DP), collision energy (CE) were 51, 61 V, 80, 18 V for APG-115 and IS in positive mode, −61, −15 V and −90, −23.5 V for epacadostat and IS in negative mode, respectively.
Blood and tumor samples were collected from 5 mice/group in group-1, group-2, group-3 and group-5 4 hrs after the final dose on […]. Blood samples were collected from 5 mice/group in group-4, group-6, group-7 and group-8 4 hrs after the final dose on d29. Approximately 100 μl blood were collected in EDTA-2K tube and 50 μl plasma were collected for PK analysis. All samples were stored at −80° C. until analysis.
In efficacy study of Example 2.1, mice in vehicle, APG-115 10 mg/kg and 50 mg/kg, and epacadostat single-agent groups were euthanized on d15 as described above. To assess PK characteristics of APG-115 and epacadostat in this study, plasma and tissue samples were collected 4 h after the last dosing on d15.

[2] = tested on: MH-22A syngeneic tumor model; assay: Efficacy in the TIL analysis study, MH-22A model (d7); type: in vivo, mouse; details: APG-115 10 mg/kg p.o. q2d; anti-PD-1 5 mg/kg i.p. biw; epacadostat 100 mg/kg p.o. bid; × 6 d
Description: (§1) Each mouse was inoculated subcutaneously at the right flank region with MH-22A tumor cells (5×10^6) in 0.2 mL of PBS for tumor development. The treatments were started when the mean tumor size reached 60 mm^3. The test articles were administered to the tumor-bearing mice according to the regimen shown in the experimental design Table 6. The day of start dosing was defined as d1.
Mice bearing MH-22A murine hepatoma tumors were treated with various agent(s) under different regimens as indicated. Isotype control antibody was included in the control.

[3] = tested on: serum MIC-1 (PD marker of TP53 activation); assay: Phase I study CTR20170975: pharmacodynamics; type: in vivo, human
Description: (§2) Patients with advanced soft tissue sarcoma (STS), adenoid cystic carcinoma (ACC) or other solid tumors in China (CTR20170975) were treated with APG-115. In dose escalation, patients received APG-115 (100-200 mg) orally QOD for first 21 days of a 28-day cycle, until disease progression. Study objectives include safety (primary endpoint), pharmacokinetics (PK), pharmacodynamics (PD), and antitumor activity assessed every 8 weeks.
(§3) This is a Phase I study (CTR20170975) is designed to assess the safety, dose-limiting toxicities (DLT), the maximum tolerated dose (MTD)/recommended phase 2 dose (RP2D), pharmacokinetics (PK), pharmacodynamics (PD) profile and anti-tumor activity of orally administered APG-115 in Chinese patients with advanced soft tissue sarcoma and other solid tumors.

[4] = tested on: Trp53 mutant MC38 syngeneic murine colon tumor; assay: In vivo efficacy study in MC38 model; design: species or system mouse; details: for T/C (%) d17 / RTV (Mean ± SEM) d17: anti-PD-1 5 mg/kg i.p. biw; for RTV (Mean ± SEM) d17: C57BL/6 mice
Description: as §1, with “MC38” for “MH-22A”, “(5×10^5)” for “(5×10^6)”, “0.1” for “0.2”, “initiated” for “started”, “˜63” for “60”, “10.” for “6.”
Efficacy of combination treatment with APG-115 plus anti-PD-1 antibody was further evaluated in a Trp53 mutant MC38 syngeneic mouse tumor model on a C57BL/6 background.

[5] = tested on: CD4+ T cells isolated from mouse spleens; assay: Activation of CD4+ T cells by APG-115 (flow cytometry); type: cell-based
Description: Effector T cells play a critical role in antitumor immunity. To investigate whether APG-115 influenced T cell function, CD4^+ T cells isolated from mouse spleens were exposed to APG-115 or solvent control DMSO.
Specifically, CD4^+ T cells were positively selected from mouse spleens using magnetic beads and stimulated with 5 μg/ml plate-bound anti-CD3 and 2 μg/ml anti-CD28 in the presence of APG-115 (250 nM) or DMSO for 24 h (Day 1) or 48 h (Day 2). The percentages of CD25-expressing and CD62L-expressing populations (top panel), and FSC (lower panel) were determined by flow cytometry.

clinical = assay: clinical; design: species or system human; details: in vivo
Description: as §2, §3

[6] = 250 nM, anti-CD3/anti-CD28 stimulated, 24 h or 48 h

CCN1[C@@H](C(=O)NC23CCC(C(=O)O)(CC2)CC3)[C@H](c2cccc(Cl)c2F)[C@]2(C(=O)Nc3cc(Cl)ccc32)C12CCCCC2 [APG-115]
serum MIC-1 levels (serum MIC-1): elevated
increases in systemic exposure and tissue distribution with dose ([1]; 10 vs 50 mg/kg): approximately dose proportional
pharmacokinetic interaction with anti-PD-1 antibody ([1]; mouse, in vivo): no apparent pharmacokinetic interaction
concentration at 4 h ([1]; mouse, plasma, 10 mg/kg, 10 mg/kg daily oral for 15 days, single agent, 4 h after last dosing, read-out: plasma concentration of APG-115): 157 ng/mL
concentration at 4 h ([1]; mouse, plasma, 10 mg/kg, 10 mg/kg in combination with anti-PD-1, read-out: plasma concentration of APG-115): 120 ng/mL
concentration at 4 h ([1]; mouse, plasma, 50 mg/kg, 50 mg/kg daily oral for 15 days, single agent, 4 h after last dosing, read-out: plasma concentration of APG-115): 1230 ng/mL
concentration at 4 h ([1]; mouse, plasma, 50 mg/kg, 50 mg/kg in combination with anti-PD-1, read-out: plasma concentration of APG-115): 2150 ng/mL
concentration at 4 h ([1]; mouse, tumor, 10 mg/kg, 10 mg/kg as single agent, read-out: APG-115 concentration in tumor tissues): 152 ng/g
concentration at 4 h ([1]; mouse, tumor, 50 mg/kg, 50 mg/kg as single agent, read-out: APG-115 concentration in tumor tissues): 1470 ng/g
RTV (Mean) d7 [2]: 12.8
T/C (%) d7 [2]: 83%
serum MIC-1 levels ([3]; APG-115 doses ≥100 mg, preliminary): elevated from individual baseline
MIC-1 increase ([3]; within the dose range tested (Example 5)): exposure dependent
Serum MIC-1 increase ([3]; within the dose range tested (Example 8)): exposure dependent
T/C (%) d17 ([4]; APG-115 10 mg/kg p.o. q2d): 73%
RTV (Mean ± SEM) d17 ([4]; APG-115 10 mg/kg p.o. q2d): 15.3 ± 2.7
T/C (%) d17 ([4]; APG-115 50 mg/kg p.o. q2d): 94%
RTV (Mean ± SEM) d17 ([4]; APG-115 50 mg/kg p.o. q2d): 19.8 ± 2.2
antitumor activity as single agent ([4]; APG-115 10 and 50 mg/kg): minimal antitumor activity
caspase 3 cleavage in T cells ([5]; 250 nM of APG-115): not detected
CD25^highCD62L^low cell populations [5, 6]: rapid increase
cell size of stimulated CD4+ T cells (FSC) [5, 6]: increase in cell size
Tmax (clinical; human): 4 to 6 h
AUC and Cmax versus dose (clinical): generally increase dose proportionally
Cmax and AUC0-t versus dose (clinical; po): approximately dose proportional increase

— patent US12268665B2, “Combination of immunotherapies with MDM2 inhibitors” (ASCENTAGE PHARMA (SUZHOU) CO., LTD., priority 2018, dated 2025)
